Assay results taken from ChEMBL document CHEMBL5241104, “Reactive metabolites of the anticonvulsant drugs and approaches to minimize the adverse drug reaction” (Eur J Med Chem, 2021).
One block for each compound: values may come before it.

Experiments:
[1] = tested on: Mus musculus; assay: Anticonvulsant activity in mouse assessed as inhibition of maximal electroshock induced seizure at 200 mg/kg,po administration for 120 mins; assay type: functional; settings: 2 h
[2] = tested on: Mus musculus; assay: Anticonvulsant activity in Swiss albino mouse assessed as inhibition of maximal electroshock induced seizure at ip administration; assay type: functional
[3] = Toxicity in Swiss albino mouse assessed as lethality at 30 mg/kg,ip; assay type: organism-based; settings: in vivo, read-out: Activity
[4] = tested on: Rattus norvegicus; assay: Anticonvulsant activity against maximal electroshock induced seizure in Wistar albino rat assessed as reduction of time spent in clonus phase at 10 mg/kg,ip administrated for 30 mins by electroconvulsive therapy; assay type: functional; design: scale not given: the % may be the effect or the level left; settings: 0.5 h
[5] = tested on: Rattus norvegicus; assay: Anticonvulsant activity against maximal electroshock induced seizure in Wistar albino rat assessed as reduction of time spent in flexion phase at 10 mg/kg,ip administrated for 30 mins by electroconvulsive therapy; assay type: functional; design: scale not given: the % may be the effect or the level left; settings: 0.5 h
[6] = tested on: Rattus norvegicus; assay: Anticonvulsant activity against maximal electroshock induced seizure in Wistar albino rat assessed as reduction of time spent in extension phase at 10 mg/kg,ip administrated for 30 mins by electroconvulsive therapy; assay type: functional; design: scale not given: the % may be the effect or the level left; settings: 0.5 h
[7] = tested on: Rattus norvegicus; assay: Anticonvulsant activity against maximal electroshock induced seizure in Wistar albino rat assessed as reduction of time spent in stupor phase at 10 mg/kg,ip administrated for 30 mins by electroconvulsive therapy; assay type: functional; design: scale not given: the % may be the effect or the level left; settings: 0.5 h
[8] = tested on: Mus musculus; assay: Anticonvulsant activity in Swiss albino mouse assessed as protection against Sc-PTZ induced seizure at po administration; assay type: functional
[9] = tested on: Mus musculus; assay: Anticonvulsant activity in Swiss mouse assessed as protection against Sc-PTZ induced seizure at ip administration; assay type: functional
[10] = Protective index, ratio of TD50 for toxicity in Sc-PTZ induced Swiss albino mouse seizure model assessed as median neurotoxicity dose at po administration by rotorod test to ED50 for anticonvulsant activity in Swiss albino mouse assessed as protection against Sc-PTZ induced seizure at po administration; assay type: organism-based; settings: in vivo, read-out: Ratio TD50/ED50
[11] = tested on: Rattus norvegicus; assay: Anticonvulsant activity in rat assessed as protection against Sc-metrazol induced seizure at po administration; assay type: functional
[12] = tested on: Mus musculus; assay: Anticonvulsant activity in mouse assessed as protection against Sc-metrazol induced seizure at po administration; assay type: functional
[13] = Toxicity in Swiss albino mouse assessed as median toxicity dose at ip administration; assay type: organism-based; settings: in vivo
[14] = Toxicity in CF-1 mouse assessed as median toxic dose at ip administrated upto 4 hrs; assay type: organism-based; settings: in vivo
[15] = Protective index, ratio of TD50 for toxicity in CF-1 mouse assessed as median toxicity dose at ip administration upto 4 hrs by rotorod test to ED50 for anticonvulsant activity in CF-1 mouse assessed as protection against maximal electroshock induced seizure at ip administration upto 4 hrs; assay type: organism-based; settings: in vivo, read-out: Ratio TD50/ED50
[16] = tested on: Mus musculus; assay: Anticonvulsant activity in Albino mouse brain assessed as increase in GABA level at 30 to 300 mg/kg,ip by spectrophotometric method; assay type: functional; settings: dose 30-300 mg/kg
[17] = tested on: Mus musculus; assay: Anticonvulsant activity in Albino mouse assessed as protection against maximal electroshock induced seizure at ip administration; assay type: functional
[18] = tested on: Mus musculus; assay: Anticonvulsant activity in Albino mouse assessed as protection against Sc-PTZ induced seizure at ip administration; assay type: functional
[19] = Protective index, ratio of TD50 for toxicity in Albino mouse assessed as median neurotoxicity dose at ip administration by rotorod test to ED50 for anticonvulsant activity in Albino mouse assessed as protection against Sc-PTZ induced seizure at ip administration; assay type: organism-based; settings: in vivo, read-out: Ratio TD50/ED50
[20] = Protective index, ratio of TD50 for toxicity in Albino mouse assessed as median neurotoxicity dose at ip administration by rotorod test to ED50 for anticonvulsant activity in Albino mouse assessed as protection against maximal electroshock induced seizure at ip administration; assay type: organism-based; settings: in vivo, read-out: Ratio TD50/ED50
[21] = tested on: Mus musculus; assay: Anticonvulsant activity in Swiss albino mouse assessed as protection against maximal electroshock induced seizure at ip administration; assay type: functional
[22] = tested on: Mus musculus; assay: Anticonvulsant activity in Swiss albino mouse assessed as protection against Sc-PTZ induced seizure at ip administration; assay type: functional
[23] = tested on: Mus musculus; assay: Anticonvulsant activity in Swiss albino mouse brain assessed as increase in GABA level at 30 mg/kg,ip measured after 7 days of post-administration by spectrophotometric method; assay type: functional; settings: time 7 day
[24] = tested on: Mus musculus; assay: Anticonvulsant activity in Swiss albino mouse brain assessed as increase in GABA level at 30 mg/kg,ip measured after 2 hrs of post-administration by spectrophotometric method; assay type: functional
[25] = tested on: Mus musculus; assay: Anticonvulsant activity in mouse assessed as protection against maximal electroshock induced seizure at ip administration for 5 mins; assay type: functional
[26] = Protective index, ratio of TD50 for toxicity in rat assessed as median toxicity dose at po administration by rotorod test to ED50 for anticonvulsant activity in rat assessed as protection against maximal electroshock induced seizure at po administration; assay type: organism-based; settings: in vivo, read-out: Ratio TD50/ED50
[27] = tested on: Mus musculus; assay: Anticonvulsant activity in mouse assessed as protection against maximal electroshock induced seizure at po administration; assay type: functional
[28] = tested on: Rattus norvegicus; assay: Anticonvulsant activity in rat assessed as protection against maximal electroshock induced seizure at po administration; assay type: functional
[29] = Toxicity in bicuculline induced Swiss mouse seizure model assessed as death at 50 mg/kg,ip administration for 30 mins; assay type: organism-based; settings: in vivo, read-out: Activity
[30] = tested on: Mus musculus; assay: Anticonvulsant activity against bicuculline induced Swiss mouse seizure model assessed as inhibition of tonic seizures at 50 mg/kg,ip administration for 30 mins; assay type: functional; settings: 0.5 h
[31] = tested on: Mus musculus; assay: Anticonvulsant activity against 3-MP induced Swiss mouse seizure model assessed as inhibition of clonic seizures at 50 mg/kg,ip administration for 30 mins; assay type: functional; settings: 0.5 h
[32] = tested on: Mus musculus; assay: Anticonvulsant activity against bicuculline induced Swiss mouse seizure model assessed as inhibition of clonic seizures at 50 mg/kg,ip administration for 30 mins; assay type: functional; settings: 0.5 h
[33] = Toxicity in 3-MP induced Swiss mouse seizure model assessed as death at 50 mg/kg,ip administration for 30 mins; assay type: organism-based; settings: in vivo, read-out: Activity
[34] = tested on: Mus musculus; assay: Anticonvulsant activity against 3-MP induced Swiss mouse seizure model assessed as inhibition of tonic seizures at 50 mg/kg,ip administration for 30 mins; assay type: functional; settings: 0.5 h
[35] = Displacement of 3[H]BTX from rat brain membrane voltage-sensitive sodium channel incubated for 1.5 hrs by scintillation counting analysis; assay type: cell membranes
[36] = species on record: Rattus norvegicus; assay: Inhibition of sodium uptake in rat cerebral cortical synaptosomes at 300 uM incubated for 30 mins by scintillation counting analysis; assay type: functional; settings: Cerebral cortex, Synaptosome
[37] = Displacement of 3[H]BTX from rat cerebral cortical synaptosomes voltage-sensitive sodium channel incubated for 1.5 hrs by scintillation counting analysis; assay type: subcellular, Cerebral cortex, Synaptosome
[38] = tested on: Rattus norvegicus; assay: Anticonvulsant activity in Wistar rat assessed as protection against maximal electroshock induced seizure at po administration; assay type: functional
[39] = species on record: Rattus norvegicus; assay: Inhibition of sodium uptake in rat cerebral cortical synaptosomes at 100 uM incubated for 30 mins by scintillation counting analysis; assay type: functional; settings: Cerebral cortex, Synaptosome
[40] = Protective index, ratio of TD50 for toxicity in Wistar rat assessed as median toxicity dose at po administration by rotorod test to ED50 for anticonvulsant activity in Wistar rat assessed as protection against maximal electroshock induced seizure at po administration; assay type: organism-based; settings: in vivo, read-out: Ratio TD50/ED50
[41] = species on record: Rattus norvegicus; assay: Inhibition of sodium uptake in rat cerebral cortical synaptosomes at 30 uM incubated for 30 mins by scintillation counting analysis; assay type: functional; settings: Cerebral cortex, Synaptosome
[42] = tested on: Rattus norvegicus; assay: Anticonvulsant activity in Wistar rat assessed as protection against maximal electroshock induced seizure by measuring median effective dose at po administration; assay type: functional

SMILES: CNS(=O)(=O)OC[C@]12OC[C@@H]3OC(C)(C)O[C@@H]3C1OC(C)(C)O2 (some centres undefined)
inhibition in vivo at 200 mg/kg [1]: ≥ 80%

SMILES: COc1cc(/C=C2/N=C(c3ccccc3)c3cc([N+](=O)[O-])ccc3NC2=O)ccc1O
inhibition (INH) [2]: 71%

SMILES: O=C1Nc2ccccc2C12Nc1ccccc1-c1nc(=O)c(-c3ccccc3)nn12 (centres undefined)
mortality [3]: 30%

SMILES: COc1ccc(/C=C2/N=C(c3ccccc3)c3cc([N+](=O)[O-])ccc3NC2=O)cc1O
inhibition (INH) [2]: 70%

SMILES: O=C1/C(=N\c2nnc(-c3cccc(Cl)c3Cl)c(/N=C3\C(=O)N(CN4CCOCC4)c4ccc(Cl)cc43)n2)c2cc(Cl)ccc2N1CN1CCOCC1
Activity [4]: 40.55% | Activity [5]: 30.39% | Activity [6]: 48.95% | Activity [7]: 34.16%

SMILES: CCCC(CCC)C(=O)[O-].[Na+] [VALPROATE SODIUM]
Activity [8]: 83% | ED50 [9]: 149 mg/kg

SMILES: C=CCC(CC(C)C)C(=O)O (racemic)
selectivity ratio [10]: 3.2

SMILES: CONC(=O)C1C(C)(C)C1(C)C
ED50 [11]: 35 mg/kg | ED50 [12]: 74 mg/kg

SMILES: CCCC(CCC)c1nnc(S)n1-c1ccccc1
TD50 [13]: 371 mg/kg

SMILES: O=C(O)CCCCCn1c(-c2ccccc2)nc(-c2ccccc2)c1-c1ccccc1
Activity [8]: 100%

SMILES: CCN(CC)CN1C(=O)/C(=N\c2nnc(-c3cccc(Cl)c3Cl)c(/N=C3\C(=O)N(CN(CC)CC)c4ccc(Cl)cc43)n2)c2cc(Cl)ccc21
Activity [4]: 39.4% | Activity [5]: 29.31% | Activity [6]: 47.87% | Activity [7]: 30.21%

SMILES: COC(=O)C1C(=O)C=C(Nc2cc(C)on2)CC1C (centres undefined)
TD50 at 4 h [14]: > 500 mg/kg | selectivity ratio at 4 h [15]: > 7.3

SMILES: CN(C)c1ccc(/C=N/Nc2nnc(-c3ccccc3)nc2Cc2cccc(Cl)c2)cc1
Activity [16]: 39.7 mg | ED50 [17]: 54.3 mg/kg | ED50 [18]: 92 mg/kg | selectivity ratio [19]: 4.73 | selectivity ratio [20]: 8.01

SMILES: COc1ccccc1/C=C1/N=C(c2ccccc2)c2cc([N+](=O)[O-])ccc2NC1=O
inhibition (INH) [2]: 69%

SMILES: O=C1N=C(N2C(=S)N=C(c3ccc(F)cc3)CC2c2ccc(O)cc2)CNN1 (centres undefined)
ED50 [21]: 22.5 mg/kg | ED50 [22]: 285 mg/kg | TD50 [13]: 389 mg/kg | Activity [23]: 78.96 µg | Activity [24]: 77.42 µg

SMILES: C=C(C)CC(CCC)C(=O)O (racemic)
selectivity ratio [10]: 2.05

SMILES: O=C(NC1CCCCC1)C(c1ccc(F)cc1)N1Cc2cnnn2-c2ccccc2C1=O (centres undefined)
Activity [25]: 87.5%

SMILES: CC1(C)C(C(=O)NC(N)=O)C1(C)C [2,2,3,3-TETRAMETHYLCYCLOPROPANECARBONYLUREA]
selectivity ratio [26]: 18.5 | ED50 [11]: 92 mg/kg | ED50 [27]: 90 mg/kg | ED50 [28]: 29 mg/kg

SMILES: NC(=O)N1c2ccccc2C=Cc2ccccc21 [CARBAMAZEPINE]
mortality at 0.5 h [29]: 40% | inhibition in vivo at 50 mg/kg [30]: 0% | inhibition in vivo at 50 mg/kg [31]: 80% | inhibition in vivo at 50 mg/kg [32]: 100% | mortality at 0.5 h [33]: 90% | inhibition in vivo at 50 mg/kg [34]: 0% | ED50 [9]: > 100 mg/kg

IC50 [35]: 2.29 mM
SMILES: NC(=O)N1c2ccccc2CC([N+](=O)[O-])c2ccccc21 (centres undefined)

SMILES: CC1(C)O[C@@H]2O[C@@]3(COS(N)(=O)=O)OC(C)(C)OC3[C@@H]2O1 (some centres undefined)
inhibition in vivo at 200 mg/kg [1]: ≥ 80%

IC50 [37]: 0.113 mM
SMILES: CC(=O)O[C@H]1Cc2ccccc2N(C(N)=O)c2ccccc21 [ESLICARBAZEPINE ACETATE]
inhibition [36]: 95.6% | Activity [38]: 100% | inhibition [39]: 73.4% | selectivity ratio [40]: 76.3 | inhibition [41]: 52.6% | ED50 [42]: 4.7 mg/kg

SMILES: COc1cc(C2CC(c3ccc(O)cc3)=NC(=S)N2C2=NC(=O)NNC2)ccc1O (centres undefined)
ED50 [21]: 29.4 mg/kg | ED50 [22]: 293 mg/kg | TD50 [13]: 412 mg/kg | Activity [23]: 91.47 µg | Activity [24]: 86.17 µg
